Tested on: Rumex obtusifolius, Trifolium repens, and Artemisia indica var. maximowiczii
Assay: Field test on bottom weed of an apple orchard
Type: in vivo
Details: after 3 months
Description: On May 21, 5.0 liters per square meter (m^2) of a slurry obtained by mixing 15% of nonstoichiometric magnesia carbonate cement with 100 fold diluted solution of glyphosate was applied to the bottom weed of an apple orchard in Hirosaki city of Aomori prefecture. The kinds of the bottom weed included Rumex obtusifolius, Trifolium repens, and Artemisia indica var. maximowiczii and these grew to a height of 150 mm. As comparative sections, a glyphosate alone section and a no-glyphosate section were provided and after 3 months the state of growth of weeds was observed. […] From the viewpoint of the thickness of the weed, mixed application of the herbicide and the nonstoichiometric magnesia carbonate cement was very effective and the mixed treatment section inhibited the growth of the weeds until October.

**Q.** Which “state of growth of weeds” value (5.0 liters per square meter applied May 21) does the source give for `O=C(O)CNCP(=O)(O)O` [glyphosate] here?
**A.** The value was “again grew”.

**Q.** And the “height of regrown weed (spindly growth)” value?
**A.** The value was 230 mm.

From patent US20060205597A1, “Weed-controlling mulching composition” (priority 2002, published 2006)
